pEC50: −log10 of the molar value.
Assays:
hM4 receptors = biological target: T1, hM4 receptors (Homo sapiens, UniProt P08173); test: Human M4 PAM pERK assay; format: cell-based; settings: CHO cells expressing hM4; with EC20 of acetylcholine (10 nM final)
T1 construct: expressed in transfected cells; host or cells: CHO cells
T1 sequence (P08173 1-479): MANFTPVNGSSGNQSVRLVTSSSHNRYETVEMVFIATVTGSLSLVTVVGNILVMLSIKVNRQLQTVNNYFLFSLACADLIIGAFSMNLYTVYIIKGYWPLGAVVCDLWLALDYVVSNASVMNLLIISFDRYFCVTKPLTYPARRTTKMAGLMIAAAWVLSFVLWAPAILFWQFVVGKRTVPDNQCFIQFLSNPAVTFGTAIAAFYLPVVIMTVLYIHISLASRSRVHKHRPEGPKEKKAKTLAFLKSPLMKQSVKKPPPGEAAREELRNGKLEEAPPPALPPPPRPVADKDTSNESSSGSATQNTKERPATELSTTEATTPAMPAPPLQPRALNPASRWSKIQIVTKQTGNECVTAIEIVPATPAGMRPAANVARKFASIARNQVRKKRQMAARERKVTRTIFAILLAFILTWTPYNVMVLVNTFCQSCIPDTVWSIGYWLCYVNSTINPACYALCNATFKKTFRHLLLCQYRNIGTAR
Method: (§1) Chinese hamster ovary (CHO) cells expressing either hM4 or rM4 receptors were frozen in assay ready vials (5×10^6 cells/vial) after bulking-up in culture. The day before an assay, vial(s) were thawed and cells seeded in 384 well white proxiplates at 1000/well for hM4 cells and at 2000/well for rM4 cells, in 10 μL of growth media (Hams/F12 with glutamax and 10% FCS) and incubated overnight at 37° C./5% CO2.
(§2) On the following morning, the growth media was removed by ‘flicking out’ over a bin, patting the inverted plate onto tissue, and then replacing with 10 μL of wash media (Hams/F12 with glutamax and 8 mM HEPES, NB: serum free). Then, the wash media was removed in the same way and replaced with 8 μL/well of the serum free media. Plates were then re-incubated for a further 4 hours at 37° C./5% CO2.
(§3) Compounds for testing were solubilized to 10 mM in DMSO and compound addition plates, consisting of ten-point concentration response curves (CRC) in duplicate points (10 μM top concentration, ½ log dilution series), were prepared by acoustic dispensing and the compound management group.
(§4) After the 4-hour incubation in serum free media, a 4 μL aliquot of the 3× compound solution containing an EC20 of acetylcholine (10 nM final concentration) was added to the cell plate using a 384 well plate to plate transfer. Then, the plate lid was replaced, and the cells incubated for 5 mins at 37° C./5% CO2. Following this final incubation, all cellular processes were stopped by the addition of 4 μL/well of lysis and blocking buffer and plates were incubated for 30 minutes at RT on an orbital shaker (gentle setting). Then, a final addition of 4 μL/well of antibody detection mix, containing both the Europium-Cryptate (donor) and d2 (acceptor) tagged detection components, was added followed by a further 2-hour incubation at RT, and then the plate was read using a TR-FRET (time resolved fluorescence resonance energy transfer) based protocol.

rM4 receptors = biological target: T2, rM4 receptors (Rattus norvegicus, UniProt P08485); test: Rat M4 PAM pERK assay; format: cell-based; settings: CHO cells expressing rM4; with EC20 of acetylcholine (10 nM final)
T2 construct: expressed in transfected cells; host or cells: CHO cells
T2 sequence (P08485 1-478): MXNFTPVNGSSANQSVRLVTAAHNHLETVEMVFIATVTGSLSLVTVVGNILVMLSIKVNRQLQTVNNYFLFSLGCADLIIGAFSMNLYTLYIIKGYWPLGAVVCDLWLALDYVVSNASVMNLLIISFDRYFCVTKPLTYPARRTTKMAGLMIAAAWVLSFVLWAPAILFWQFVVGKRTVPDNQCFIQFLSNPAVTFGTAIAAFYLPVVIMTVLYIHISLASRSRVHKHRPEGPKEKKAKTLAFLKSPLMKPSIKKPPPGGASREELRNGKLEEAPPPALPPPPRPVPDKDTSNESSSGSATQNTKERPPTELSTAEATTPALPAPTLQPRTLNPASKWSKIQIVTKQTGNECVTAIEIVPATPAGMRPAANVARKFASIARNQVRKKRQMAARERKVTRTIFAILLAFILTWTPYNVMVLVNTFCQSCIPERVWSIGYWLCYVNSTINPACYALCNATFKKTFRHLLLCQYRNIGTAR
Method: as §1, §2, §3, §4

human M4 receptor = biological target: T3, human M4 receptor (Homo sapiens, UniProt P08173); test: M4 GTPγS PAM assay; format: biochemical; settings: membranes of CHO-K1 cells stably expressing human M4; EC20 acetylcholine 40 nM
T3 construct: expressed in transfected cells; host or cells: CHO-K1 cells (membrane preparation)
T3 sequence (P08173 1-479): T1 sequence (P08173 1-479)
Method: The M4 GTPγS PAM method was used. Membranes were prepared for GTPgS binding assays from CHO-K1 cells stably expressing human M4 receptor. Briefly, cells were grown in 5-layer cell culture flasks. Cells were washed with 50 mL of PBS and then dissociated with 0.05% trypsin. Dissociated cells were then collected by centrifugation at 650×g for 8 minutes at 4° C. Pellets were washed again in PBS by centrifugation and resuspended in 30 mL of 20 mM HEPES, 10 mM EDTA, pH 7.4. After sitting on ice for 30 min, membranes were collected by centrifugation at 50000×g for 15′ at 4° C., resuspended in 30 mL of 20 mM HEPES, 0.1 mM EDTA, pH 7.4 and collected again by centrifugation. Pellets were then washed twice by centrifugation in 30 mL of 20 mM HEPES, pH 7.4, and stored at −80° C. until the day of the assay. On the day of the assay, pellets were thawed on ice and resuspended in 1 mL of 20 mM HEPES, pH 7.4, 10 mM MgCl2, 100 mM NaCl using dounce homogenization. Membrane protein concentration is determined by BCA protein assay (Promega, Madison, WI) according to Promega guidelines.
On the day of the assay, serial dilutions of test PAM compounds were brought up in assay buffer (20 mM HEPES, 10 mM MgCl2, 100 mM NaCl) at 4× final assay concentration. […] of membrane homogenates (containing […] of membrane protein) were prepared in assay buffer supplemented with GDP at 4× final assay concentration (final assay concentration of GDP is 5 μM for M2 and 0.1 μM for M4) and dispensed into 96 well polypropylene, U-bottom Greiner plates. […] of vehicle or test PAM compound at 4× of final assay concentration diluted in the assay buffer were added to membrane and plates are incubated for 10-15 minutes at room temperature with gentle shaking. Then, […] of EC20 acetylcholine in assay buffer at 4× final assay concentration was added to assay plates (EC20 final assay concentrations was 40 nM for human M4).
Plates were then incubated, with shaking, for an additional 10-15 minutes. 25 mL of 0.4 nM ^35S-GTP (Perkin Elmer, Waltham, MA) in assay buffer was added to assay mixtures. The binding reaction is left on the shaker for 1 hour at room temperature. Membranes in assay reactions were then transferred to GF/C filter plates (Unifilter, Perkin Elmer) and washed three times using a FilterMate Harvester (Perkin Elmer) with cold assay buffer containing no GDP. Filter plates were then dried at 40° C. overnight followed by the addition of […] of Beta Plate Scintillation liquid. Plates are top and bottom sealed before being read on TopCount scintillation counter (Perkin Elmer, Waltham, MA).

Compound	pEC50 (hM4 receptors)	pEC50 (rM4 receptors)	pEC50 (human M4 receptor)
COc1c2c(n(C)c(=O)c1C)CN(C(=O)CC1CC1c1ccc(C(F)(F)F)cc1)C2 (single isomer, unassigned) [Compound I-29, 4-Methoxy-1,3-dimethyl-6-([trans-2-(2-(4-(trifluoromethyl)phenyl)cyclopropyl)]acetyl)-1,5,6,7-tetrahydro-2H-pyrrolo[3,4-b]pyridin-2-one]	6.30 to 7.00	6.30 to 7.00	> 7.00
Cc1c2c(n(C)c(=O)c1Cl)CN(C(=O)CC1CC1c1ccc(C(F)(F)F)cc1)C2 (single isomer, unassigned) [Compound I-32]	5.70 to 6.30	5.70 to 6.30	6.30 to 7.00
Cc1c2c(n(C)c(=O)c1Cl)CN(C(=O)CC1CC1c1ccc(C(F)(F)F)cc1)C2 (single isomer, unassigned) [Compound I-33]	> 7.00	> 7.00	> 7.00
Cc1c2c(n(C)c(=O)c1Cl)CN(C(=O)CC1CC1c1cc(F)cc(F)c1)C2 (single isomer, unassigned) [Compound I-35]	5.70 to 6.30	< 5.70	< 5.70
Cc1c2c(n(C)c(=O)c1Cl)CN(C(=O)CC1CC1c1cc(F)cc(F)c1)C2 (single isomer, unassigned) [Compound I-36]	> 7.00	> 7.00	> 7.00
Cc1cc(=O)n(C)c2c1CN(C(=O)CC1CC1c1ccc(C(F)(F)F)nc1)C2 (stereo not drawn) [Compound I-3]	5.70 to 6.30	5.70 to 6.30	5.70 to 6.30
Cc1cc(=O)n(C)c2c1CN(C(=O)CC1CC1)C2 [Compound I-10]	5.70 to 6.30	< 5.70	5.70 to 6.30
Cc1cc(=O)n(C)c2c1CN(C(=O)CC1CC1c1cccc(C3COC3)c1)C2 (stereo not drawn) [Compound I-12]	6.30 to 7.00	5.70 to 6.30	< 5.70
Cc1c2c(n(C)c(=O)c1C)CN(C(=O)CC1CC1c1cc(F)cc(F)c1)C2 (stereo not drawn) [Compound I-21]	> 7.00	6.30 to 7.00	> 7.00
Cc1c2c(n(C)c(=O)c1C)CN(C(=O)CC1CC1c1cccc(F)c1F)C2 (stereo not drawn) [Compound I-24]	> 7.00	6.30 to 7.00	> 7.00
COc1c2c(n(C)c(=O)c1C)CN(C(=O)CC1CC1c1ccc(C(F)(F)F)cc1)C2 (stereo not drawn) [Compound I-30]	< 5.70	5.70 to 6.30	< 5.70
Cc1c2c(n(C)c(=O)c1Cl)CN(C(=O)CC1CC1c1cc(F)cc(F)c1)C2 (stereo not drawn) [Compound I-34]	> 7.00	> 7.00	> 7.00
